In the supplement of paper PMC13207355:

Key:
Conditions in all cases: exposure time: 72 h
E13 [1] = patient-derived glioblastoma stem cells of classical subtype; assay: surviving fraction (nuclei count normalised to DMSO); higher = more cells surviving (less toxic)
E21 [2] = patient-derived glioblastoma stem cells of mesenchymal subtype; assay: as above
E28 [3] = patient-derived glioblastoma stem cells of classical subtype; assay: as above
E31 [4] = patient-derived glioblastoma stem cells of proneural subtype; assay: as above
E34 [5] = patient-derived glioblastoma stem cells of proneural subtype; assay: as above
E57 [6] = patient-derived glioblastoma stem cells of mesenchymal subtype; assay: as above
FT3469 [7] = normal neural stem cell line; assay: as above
E13 [8] = assay: phenotypic distance (Euclidean, principal components) from DMSO controls (arbitrary units); higher = stronger morphological change
E21 [9] = assay: as above
E28 [10] = assay: as above
E31 [11] = assay: as above
E34 [12] = assay: as above
E57 [13] = assay: as above
FT3469 [14] = assay: as above
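Throughout, for phenotypic distance (Euclidean, principal components) from DMSO controls: cell Painting imaging in 384-well plates, CellProfiler features reduced to at least 20 principal components, Euclidean distance versus same-plate DMSO vehicle wells (0.1% v/v), median over six images per well.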
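Throughout, for surviving fraction (nuclei count normalised to DMSO): nuclei counted by high-content imaging of Hoechst-stained cells in laminin-coated 384-well plates, relative to 0.1% DMSO vehicle wells, with staurosporine as cell-death control.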

COc1cc2ncnc(Nc3cccc(Br)c3)c2cc1OC
Conditions	phenotypic distance	surviving fraction
E13 [1], 4.1 nM	–	0.967
E13 [1], 12.3 nM	–	1.02
E13 [1], 37 nM	–	0.972
E13 [1], 111.1 nM	–	0.952
E13 [1], 333.3 nM	–	1.14
E13 [1], 1000 nM	–	1.04
E13 [1], 3000 nM	–	0.903
E13 [8], 4.1 nM	3.14	–
E13 [8], 12.3 nM	0.603	–
E13 [8], 37 nM	1.05	–
E13 [8], 111.1 nM	4.7	–
E13 [8], 333.3 nM	3.33	–
E13 [8], 1000 nM	1.72	–
E13 [8], 3000 nM	1.27	–
E21 [2], 4.1 nM	–	1.02
E21 [2], 12.3 nM	–	0.921
E21 [2], 37 nM	–	0.943
E21 [2], 111.1 nM	–	0.867
E21 [2], 333.3 nM	–	1.06
E21 [2], 1000 nM	–	0.88
E21 [2], 3000 nM	–	0.346
E21 [9], 4.1 nM	0.609	–
E21 [9], 12.3 nM	1.01	–
E21 [9], 37 nM	0.8	–
E21 [9], 111.1 nM	3.3	–
E21 [9], 333.3 nM	0.937	–
E21 [9], 1000 nM	1.35	–
E21 [9], 3000 nM	5.43	–
E28 [3], 4.1 nM	–	1.07
E28 [3], 12.3 nM	–	0.99
E28 [3], 37 nM	–	0.899
E28 [3], 111.1 nM	–	0.898
E28 [3], 333.3 nM	–	0.963
E28 [3], 1000 nM	–	0.944
E28 [3], 3000 nM	–	0.918
E28 [10], 4.1 nM	0.79	–
E28 [10], 12.3 nM	0.832	–
E28 [10], 37 nM	0.627	–
E28 [10], 111.1 nM	1.04	–
E28 [10], 333.3 nM	1.13	–
E28 [10], 1000 nM	1.23	–
E28 [10], 3000 nM	0.966	–
E31 [4], 4.1 nM	–	1.05
E31 [4], 12.3 nM	–	0.755
E31 [4], 37 nM	–	0.826
E31 [4], 111.1 nM	–	0.837
E31 [4], 333.3 nM	–	0.877
E31 [4], 1000 nM	–	0.767
E31 [4], 3000 nM	–	0.97
E31 [11], 4.1 nM	0.794	–
E31 [11], 12.3 nM	0.613	–
E31 [11], 37 nM	0.892	–
E31 [11], 111.1 nM	0.732	–
E31 [11], 333.3 nM	1.01	–
E31 [11], 1000 nM	0.889	–
E31 [11], 3000 nM	1.3	–
E34 [5], 4.1 nM	–	1.05
E34 [5], 12.3 nM	–	0.884
E34 [5], 37 nM	–	1.07
E34 [5], 111.1 nM	–	1.12
E34 [5], 333.3 nM	–	0.965
E34 [5], 1000 nM	–	1.07
E34 [5], 3000 nM	–	0.81
E34 [12], 4.1 nM	0.973	–
E34 [12], 12.3 nM	0.835	–
E34 [12], 37 nM	1.15	–
E34 [12], 111.1 nM	1.03	–
E34 [12], 333.3 nM	1.14	–
E34 [12], 1000 nM	1.16	–
E34 [12], 3000 nM	2.27	–
E57 [6], 4.1 nM	–	0.926
E57 [6], 12.3 nM	–	0.974
E57 [6], 37 nM	–	0.909
E57 [6], 111.1 nM	–	0.83
E57 [6], 333.3 nM	–	0.818
E57 [6], 1000 nM	–	0.793
E57 [6], 3000 nM	–	0.656
E57 [13], 4.1 nM	0.927	–
E57 [13], 12.3 nM	1.19	–
E57 [13], 37 nM	1.4	–
E57 [13], 111.1 nM	1.37	–
E57 [13], 333.3 nM	1.71	–
E57 [13], 1000 nM	1.59	–
E57 [13], 3000 nM	1.98	–
FT3469 [7], 4.1 nM	–	0.879
FT3469 [7], 12.3 nM	–	0.996
FT3469 [7], 37 nM	–	0.905
FT3469 [7], 111.1 nM	–	0.858
FT3469 [7], 333.3 nM	–	1.05
FT3469 [7], 1000 nM	–	1.04
FT3469 [7], 3000 nM	–	1.06
FT3469 [14], 4.1 nM	0.686	–
FT3469 [14], 12.3 nM	0.611	–
FT3469 [14], 37 nM	0.986	–
FT3469 [14], 111.1 nM	0.512	–
FT3469 [14], 333.3 nM	0.982	–
FT3469 [14], 1000 nM	0.82	–
FT3469 [14], 3000 nM	1.29	–

COc1ccc2c(c1)CC[C@@H]1[C@@H]2CC[C@]2(C)[C@@H](NCCCCCCN3C(=O)CCC3=O)CC[C@@H]12
Conditions	phenotypic distance	surviving fraction
E13 [1], 4.1 nM	–	0.826
E13 [1], 12.3 nM	–	0.95
E13 [1], 37 nM	–	0.876
E13 [1], 111.1 nM	–	0.929
E13 [1], 333.3 nM	–	0.981
E13 [1], 1000 nM	–	0.804
E13 [1], 3000 nM	–	0.52
E13 [8], 4.1 nM	1.07	–
E13 [8], 12.3 nM	0.714	–
E13 [8], 37 nM	0.93	–
E13 [8], 111.1 nM	1.11	–
E13 [8], 333.3 nM	1.31	–
E13 [8], 1000 nM	2.29	–
E13 [8], 3000 nM	3.72	–
E21 [2], 4.1 nM	–	1.03
E21 [2], 12.3 nM	–	0.961
E21 [2], 37 nM	–	0.951
E21 [2], 111.1 nM	–	1.13
E21 [2], 333.3 nM	–	1.06
E21 [2], 1000 nM	–	0.867
E21 [2], 3000 nM	–	0.645
E21 [9], 4.1 nM	0.642	–
E21 [9], 12.3 nM	0.74	–
E21 [9], 37 nM	0.741	–
E21 [9], 111.1 nM	0.893	–
E21 [9], 333.3 nM	0.934	–
E21 [9], 1000 nM	1.42	–
E21 [9], 3000 nM	4.65	–
E28 [3], 4.1 nM	–	1.09
E28 [3], 12.3 nM	–	1.03
E28 [3], 37 nM	–	1.03
E28 [3], 111.1 nM	–	1.09
E28 [3], 333.3 nM	–	1.1
E28 [3], 1000 nM	–	1.01
E28 [3], 3000 nM	–	0.973
E28 [10], 4.1 nM	0.61	–
E28 [10], 12.3 nM	0.49	–
E28 [10], 37 nM	0.46	–
E28 [10], 111.1 nM	0.724	–
E28 [10], 333.3 nM	0.645	–
E28 [10], 1000 nM	0.805	–
E28 [10], 3000 nM	2.44	–
E31 [4], 4.1 nM	–	0.965
E31 [4], 12.3 nM	–	1.14
E31 [4], 37 nM	–	0.985
E31 [4], 111.1 nM	–	1.05
E31 [4], 333.3 nM	–	1.06
E31 [4], 1000 nM	–	0.962
E31 [4], 3000 nM	–	0.624
E31 [11], 4.1 nM	0.697	–
E31 [11], 12.3 nM	0.31	–
E31 [11], 37 nM	0.566	–
E31 [11], 111.1 nM	0.735	–
E31 [11], 333.3 nM	1.61	–
E31 [11], 1000 nM	2.54	–
E31 [11], 3000 nM	6.23	–
E34 [5], 4.1 nM	–	0.876
E34 [5], 12.3 nM	–	0.901
E34 [5], 37 nM	–	1.13
E34 [5], 111.1 nM	–	0.957
E34 [5], 333.3 nM	–	0.939
E34 [5], 1000 nM	–	0.979
E34 [5], 3000 nM	–	0.986
E34 [12], 4.1 nM	1.13	–
E34 [12], 12.3 nM	0.657	–
E34 [12], 37 nM	0.637	–
E34 [12], 111.1 nM	0.671	–
E34 [12], 333.3 nM	0.968	–
E34 [12], 1000 nM	1.06	–
E34 [12], 3000 nM	0.95	–
E57 [6], 4.1 nM	–	1.11
E57 [6], 12.3 nM	–	1.04
E57 [6], 37 nM	–	1.13
E57 [6], 111.1 nM	–	1.13
E57 [6], 333.3 nM	–	1.17
E57 [6], 1000 nM	–	1.11
E57 [6], 3000 nM	–	0.936
E57 [13], 4.1 nM	3.52	–
E57 [13], 12.3 nM	0.302	–
E57 [13], 37 nM	0.424	–
E57 [13], 111.1 nM	0.621	–
E57 [13], 333.3 nM	1.22	–
E57 [13], 1000 nM	1.78	–
E57 [13], 3000 nM	2.68	–
FT3469 [7], 4.1 nM	–	0.984
FT3469 [7], 12.3 nM	–	1.11
FT3469 [7], 37 nM	–	1.03
FT3469 [7], 111.1 nM	–	1.11
FT3469 [7], 333.3 nM	–	1.06
FT3469 [7], 1000 nM	–	0.922
FT3469 [7], 3000 nM	–	0.983
FT3469 [14], 4.1 nM	0.686	–
FT3469 [14], 12.3 nM	0.245	–
FT3469 [14], 37 nM	0.58	–
FT3469 [14], 111.1 nM	0.496	–
FT3469 [14], 333.3 nM	0.408	–
FT3469 [14], 1000 nM	0.646	–
FT3469 [14], 3000 nM	0.711	–
